Entries after “also recorded” stand apart in the source; their conditions may differ. Like-named read-outs stand apart in the source and are kept apart here.
Experiments:
[1] = biological target: AChE (Electrophorus electricus, UniProt O42275); settings: Lineweaver-Burk plot
Method: The plots were assessed by a weighted least-squares analysis that assumed the variance of velocity (v) to be a constant percentage of v for the entire data set.

[2] = test system: BuChE; settings: cited from earlier work
[3] = test system: AChE; settings: cited from earlier work

AChE (Electrophorus electricus, UniProt O42275), sequence (O42275 24-633): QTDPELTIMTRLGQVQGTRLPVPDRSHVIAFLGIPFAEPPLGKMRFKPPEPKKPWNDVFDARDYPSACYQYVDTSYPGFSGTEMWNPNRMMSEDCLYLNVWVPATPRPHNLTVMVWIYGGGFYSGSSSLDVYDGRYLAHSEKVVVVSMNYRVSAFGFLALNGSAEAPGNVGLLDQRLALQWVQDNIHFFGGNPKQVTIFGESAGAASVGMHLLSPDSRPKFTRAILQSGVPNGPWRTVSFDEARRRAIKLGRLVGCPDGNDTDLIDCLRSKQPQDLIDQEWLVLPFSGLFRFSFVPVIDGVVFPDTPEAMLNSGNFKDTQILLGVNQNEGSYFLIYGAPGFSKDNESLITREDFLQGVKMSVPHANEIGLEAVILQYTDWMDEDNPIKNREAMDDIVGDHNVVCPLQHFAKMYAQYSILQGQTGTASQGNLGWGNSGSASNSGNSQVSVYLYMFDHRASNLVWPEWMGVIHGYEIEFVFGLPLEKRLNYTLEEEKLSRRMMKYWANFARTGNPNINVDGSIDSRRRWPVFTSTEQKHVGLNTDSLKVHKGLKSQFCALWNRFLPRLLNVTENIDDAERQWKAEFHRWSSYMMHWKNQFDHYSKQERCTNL

| SMILES | IC50 [2] [µM] | IC50 ([3]; authors' previous work) [µM] | further results |
| --- | --- | --- | --- |
| CCN(CC)CC(=O)Nc1nc(-c2cc3ccccc3oc2=O)cs1 [Compound 6c, 2-(Diethylamino)-N-(4-(2-oxo-2H-chromen-3-yl)thiazol-2-yl)acetamide] | – | – | type of AChE inhibition [1]: mixed-type inhibitor; also recorded: mixed-type inhibition |
| O=C(Nc1nc(-c2cc3cc(Br)ccc3o2)cs1)Nc1ccccc1F [PBI-1] | – | 3.85 | – |
| COc1cccc2cc(-c3csc(NC(=S)Nc4ccc(Cl)cc4)n3)c(=O)oc12 [PBI-2] | – | 4.58 | – |
